Structures can show the parent of a compound that is named as a salt. Where two headings read alike, the source gives them in different places.
Key:
[1] = neat melt, SD of three measurements in parentheses
Protocol: Standard deviations of three measurements are provided in parentheses.
Viscosity was measured using 1-mL samples with a LC-ARES Test Station (TA Instruments, New Castle, Del.) and a cone (diameter: 25 mm; angle: 0.1 rad). The cone rotation rate was 10 s^−1 and viscosity was measured three times per sample at 25° C. and 37° C. Differential scanning calorimetry (DSC) was performed with a Q2000 DSC with 50 position autosampler (TA Instruments, New Castle, Del.). Sample size was 9-10 mg, and was weighed in an aluminum hermetic pan. Samples were heated from room temperature to 120° C. under N2 atmosphere followed by cooling to […] and subsequent heating back to 120° C. with a ramp rate of 10° C. per minute.

[2] = Molar conductivity (neat, in water, in n-octanol); format: physicochemical; conditions: for molar conductivity in n-octanol: 1.32 mM PRL:C8, 1.24 mM PRL:C5, mean±SD; for molar conductivity in water in comparison to sodium chloride: 25° C. and 37° C., FIGS. 9A and 9B
[3] = porcine skin, 24 hours, 37° C.
Protocol: Franz diffusion cells were used to assess the skin transport of propranolol melts or ionic liquids using a previously established protocol described in Karande, P., et al., Discovery of transdermal penetration enhancers by high-throughput screening. […] Briefly, the acceptor chamber was filled with degas sed PBS or 4% bovine serum albumin in PBS and a small stir bar was added. Thawed porcine skin was clamped in place between the acceptor and donor chambers with the SC facing up. Care was taken to ensure no air bubbles resided in the acceptor chamber, and skin was stretched to minimize the presence of furrows. PFB solution in either IPM or EtOH was spiked with the 3H-labeled propranolol free base solution to a final concentration of 10 μCi/mL. Alternatively, 3H-labeled propranolol melts or ionic liquids were used as donor formulations. […] Samples from each tissue layer and acceptor solution were dissolved in Solvable (Perkin Elmer, Waltham, Mass.) overnight, and the amount of propranolol was measured using a scintillation counter and standard solution of radiolabeled donors. […] Furthermore, permeability (Kp) was calculated using the following equation, where Jss is the steady-state flux calculated as the slope of the linear portion of the plot of the cumulative amount permeated per unit area versus time, and C is propranolol concentration in donor. […]

[4] = test system: Mat Tek Epiderm FT human skin equivalent tissues; conditions: for Dose-normalized skin irritation potential, fold lower than 0.1 M PFB EtOH formulation: interleukin-1α release divided by applied dose, neat melt, FIG. 8A; for skin irritation potential normalized to delivered dose in acceptor, fold lower than 0.1 M PFB EtOH formulation: interleukin-1α release divided by delivered dose in acceptor compartment, FIG. 8B
Protocol: Evaluation was conducted using human skin equivalent tissues (Epiderm™) with a human interleukin-1α ELISA kit. Interleukin-1α release has been previously established as an indicator for skin irritation and affords evaluating irritation without requiring removal of the test formulation from skin tissues, a potentially damaging process to the tissues when studying viscous formulations. 0.1 M and 0.2 M PFB EtOH formulations, positive control (5% sodium dodecyl sulfate (SDS) in PBS), negative control (PBS) and EtOH solvent control were also evaluated.
Skin irritation was assessed by measuring interleukin-1α release from Mat Tek Epiderm FT™ human skin equivalent tissues (MatTek Corporation, Ashland, Mass.). Experiments were performed according to the manufacturer's recommended protocol. Briefly, new media was added immediately before application of formulations. Formulations were applied to the surface of the tissues for 4 hours. After 4 hours, 200 μL of media was collected for interleukin-la analysis. Interleukin-la release was quantified using a Human Interleukin-la ELISA Kit (Pierce Biotechnology Inc., Rockford, Ill.) according to the manufacturer's recommended Protocol. ThermoFisher Scientific. Instructions of Human IL-1α ELISA Kit. Retrieved from https://www.thermofisher.com/order/catalog/product/EH2IL1A (2014). Absorbance of blank (0 pg/mL Interleukin-1α) was subtracted from absorbance of each sample.

[5] = Solubility in organic and aqueous solvents; format: physicochemical
[6] = Partition coefficient n-octanol/water (log Po/w); format: physicochemical
Protocol: Lipophilicity of propranolol melts or ionic liquids, measured as partition coefficient n-octanol/water (log Po/w), varied depending on the carbon chain length of the counter species (FIG. 6C). The log Po/w of propranolol melts or ionic liquids ranged from 0.76 to 1.76, and were between −0.41 of PRL:Cl and 3.12 of PFB.
A 250 mL volume of n-octanol was shaken with 25 mL of ddH2O and left overnight to obtain n-octanol saturated with water. A 250 mL volume of ddH2O was shaken with 25 mL of n-octanol and left overnight to obtain water saturated with n-octanol. Ten milliliters of saturated n-octanol was added to each 3H-labeled propranolol melt or ionic liquid (6-10 mg) in a 20-mL scintillation vial followed by stirring until the melt or ionic liquid was dissolved completely. 10 mL saturated water was shaken with 10 mL of the 3H-labeled propranolol melt or ionic liquid solution in octanol for 1 minute, followed by 2 minutes of gentle centrifugation (1000 rpm, 74×g, Allegra X-12R centrifuge, FX6100 rotor, Beckman Coulter, Brea, Calif.) to obtain clean separation of the two layers. […] The partition coefficient n-octanol/water was calculated as the logarithm of the concentration of propranolol in octanol divided by the concentration of propranolol in water.

SMILES | Propranolol Melt Viscosity ([1]; 25° C.) | Propranolol Melt Viscosity ([1]; 37° C.) | molar conductivity in n-octanol ([2]; 25° C.) [S cm^2/mol] | molar conductivity in n-octanol ([2]; 37° C.) [S cm^2/mol] | molar conductivity in water in comparison to sodium chloride ([2]; water) | Dose-normalized skin irritation potential, fold lower than 0.1 M PFB EtOH formulation ([4]; 4 hours) [fold] | skin irritation potential normalized to delivered dose in acceptor, fold lower than 0.1 M PFB EtOH formulation [4] [fold] | partition coefficient n-octanol/water (log Po/w) [6] | other results
CC(C)NCC(O)COc1cccc2ccccc12.CCCCC(CC)COC(=O)CC(C(=O)OCC(CC)CCCC)S(=O)(=O)O (stereo not shown) [PRL:C8, propranolol dioctyl sulfosuccinate] | 70.4 (0.9) Pa s | 16.9 (0.1) Pa s | 0.49±0.01 | 0.51±0.01 | much lower molar conductivity | 11 | 40 | – | molar conductivity in water, fold lower than PRL:C5 ([2]; water, 37° C., concentrations >1 mM): ~10 fold; amount of propranolol delivered into skin layers and acceptor [3]: delivery enhancement into each layer; skin permeability (flux normalized by applied dose) [3]: highest permeability among analog melts or ionic liquids; difference in skin irritation potential between PRL:C8 and PRL:C5 ([4]; dose-normalized, FIGS. 8A and 8B): ~10 fold
CCCCCCCCCCCCOS(=O)(=O)[O-].[Na+] [5% SDS in PBS, Sodium dodecyl sulfate, reference compound] | – | – | – | – | – | – | – | – | Interleukin-1α release (irritation) ([4]; 4 hours, FIG. 14A): highest amount of irritation
CC(C)NCC(O)COc1cccc2ccccc12.CCCCCOC(=O)CC(C(=O)OCCCCC)S(=O)(=O)O (stereo not shown) [PRL:C5, propranolol diamyl sulfosuccinate] | 59.5 (1.6) Pa s | 14.7 (0.2) Pa s | 0.35±0.01 | 0.40±0.01 | much lower molar conductivity | 1.7 | 3.7 | – | –
CC(C)NCC(O)COc1cccc2ccccc12.CCCCCCOC(=O)CC(C(=O)OCCCCCC)S(=O)(=O)O (stereo not shown) [PRL:C6, propranolol dihexyl sulfosuccinate] | 1889.4 (325.2) Pa s | 180.9 (10.8) Pa s | – | – | – | – | – | – | –
CC(C)NCC(O)COc1cccc2ccccc12 (stereo not shown) [PRL:Cl, propranolol hydrochloride] | – | – | – | – | – | – | – | −0.41 | solubility ([5]; methanol, organic solvent or mixture, read-out: solubility in methanol): 510 mM; solubility ([5]; water, read-out: solubility in water): 170 mM
CC(C)NCC(O)COc1cccc2ccccc12 (stereo not shown) [PFB, propranolol free base] | – | – | – | – | – | – | – | 3.12 | –
